Results taken from paper PMC9797896 (Medicinal Chemistry Research, 2022).
Where “and” joins values, the source holds several entries; their conditions need not be identical. Equal entries are not always repeated. Where two headings read alike, the source gives them in different places.

System: SARS-CoV-2 (Omicron variant, B.1.1.529/BA.2 sublineage)
Experiment: microbe, parasite or virus in culture
Type: cell-based
Conditions: for EC50 / EC90: Severe acute respiratory syndrome coronavirus 2, Vero C1008, 48 h; for EC90: read-out: 90% Reduction in Infectious Virus (EC90); for time to maximal effectiveness against the Omicron variant particles: after starting administration and treatment
[1] = read-out: 50% Reduction in Infectious Virus (EC50)
[2] = read-out: 50% Reduction in Viral RNA Copy (EC50)

Row | Compound | 100% CPE Inhibitory Concentration (CPEIC100) | EC50 [1] [µM] | EC50 [2] [µM] | EC90 [µM] | time to maximal effectiveness against the Omicron variant particles [h] | 100% CPE Inhibitory Concentration (CPEIC100) (listed as forodesine) [µM]
1 | O=c1[nH]cnc2c([C@@H]3N[C@H](CO)[C@@H](O)[C@H]3O)c[nH]c12 [Forodesine, forodesine] | 1.69 ± 0.06 µM | ~0.7 | 0.73 ± 0.04 | 2.2 ± 0.06 | 4 to 10 | 1.69
2 | CCC(CC)COC(=O)[C@H](C)N[P@](=O)(OC[C@H]1O[C@@](C#N)(c2ccc3c(N)ncnn23)[C@H](O)[C@@H]1O)Oc1ccccc1 [Remdesivir, remdesivir] | 5.99 µM and 5.99 ± 0.20 µM | 2.07 ± 0.08 | – | 8.01 ± 0.29 | – | –
3 | Nc1ncnc2c1ncn2[C@@H]1O[C@H](CO)[C@@H](O)[C@@H]1O [Vidarabine, Arabinosyladenine] | 8.10 ± 0.25 µM | 3.2 ± 0.13 | 3.23 ± 0.13 | 12.6 ± 0.35 | – | –
4 | OC[C@H]1O[C@@H](n2cnc3c(N[C@@H]4CCOC4)ncnc32)[C@H](O)[C@@H]1O [Tecadenoson, tecadenoson] | 7.73 ± 0.23 µM | 2.9 ± 0.1 | 2.95 ± 0.11 | 11.9 ± 0.32 | – | –
5 | CC(C)Nc1nc2cc(Cl)c(Cl)cc2n1[C@H]1O[C@@H](CO)[C@H](O)[C@@H]1O [Maribavir, maribavir] | 7.97 ± 0.27 µM | 3.05 ± 0.13 | 3.2 ± 0.14 | 12.3 ± 0.33 | – | –
6 | COc1nc(N)nc2c1ncn2[C@@H]1O[C@H](CO)[C@@H](O)[C@@H]1O [Nelarabine, nelarabine] | – | 1.68 ± 0.08 | 1.75 ± 0.08 | 6.46 ± 0.18 | – | –
7 | CC(C)=CCNc1ncnc2c1ncn2[C@@H]1O[C@H](CO)[C@@H](O)[C@H]1O [Riboprine, N^6-(2-Isopentenyl)adenosine] | 1.21 µM and 1.21 ± 0.04 µM | ~0.45 | 0.48 ± 0.03 | 1.71 ± 0.05 | 4 to 10 | –
8 | CC(C)C(=O)OC[C@H]1O[C@@H](n2ccc(NO)nc2=O)[C@H](O)[C@@H]1O [Molnupiravir, molnupiravir] | 6.28 µM and 6.28 ± 0.28 µM | 2.61 ± 0.1 | 2.73 ± 0.11 | 9.1 ± 0.31 | – | –
